In brackets after ≈: the same amount, converted by molar mass. Like-named read-outs stand apart in the source and are kept apart here.
Experiments:
[1] = Log P/D determination, pH-metric titration with 1-octanol; type: physicochemical
Protocol: Log P and log D were determined for SJB-01 free base using 1-octanol as the partition solvent (Table 2). Log P was experimentally determined to be 4.73 which is larger than the predicted value for the structure, the corresponding Bjerrum plot is shown in FIG. 6. A log D profile (FIG. 5) was constructed for SJB-01 based on the distribution of the API at a particular pH.
(§1) pKa and log P/D data were collected using Pion PULSE Attain software. The Pion PULSE solutions consisted of using ionic strength adjusted water (0.15 M KCl), 0.5 M HCl and […] which were used for all titrations. Purge gas (argon) was used for HEPES (probe validation), KHP (KOH concentration determination), aqueous potentiometric and log P/D potentiometric titrations.
(§2) The Pion PULSE was equipped with an overhead variable speed stirrer, double junction Ag/AgCl pH probe, UV probe with a 1 cm pathlength, Carl-Zeiss spectrophotometer with 256-bit photodiode array, and a temperature probe. The pH of the instrument can range from 1.8-12.2. The compatible co-solvents are MeOH, EtOH, ACN, DMSO and 1,4-dioxane. pKa measurements were completed by either potentiometric or UV-metric methods. log P/D was measured using water saturated 1-octanol as the partitioning solvent. Data was refined using the Pion PULSE refine software.

[2] = Maximal absorbable dose (MAD) calculation; set-up: species or system humans
Protocol: The maximal absorbable dose (MAD) of SJB-01, as described by Curatolo (1998), can be calculated according to the following equation: […]
Using this equation, the maximal absorbable dose is 16 mg for SJB-01.

[3] = Log P/D7.4 by shake flask method, octanol-buffer; type: physicochemical; conditions: pH 7.4, octanol-buffer two phase system
Protocol: The Log P/D7.4 value was determined by the shake flask method in an octanol-buffer two phase systems.

[4] = Chemical stability (oxygen, pH, light, PEG 400); type: physicochemical
[5] = Intrinsic Dissolution Rate (IDR); type: physicochemical; conditions: FeSSIF media, presence of bile components
Protocol: The Intrinsic Dissolution Rate (IDR) was calculated for a beta polymorph form of SJB-01. A tablet of the compound was pressed and put into a dissolution chamber. It was subsequently measured how fast the substance was dissolved from the surface into the solvent. Initially, the experiment was performed in a standard buffer (0.001 M HCl pH 3.0), reflecting the stomach conditions at fastened state.
Due to the high impact of bile components on solubilisation of SJB-01, IDR was performed in FeSSIF media, reflecting the fed-state in humans.

[6] = pKa determination, co-solvent potentiometric titration (Yasuda-Shedlovsky extrapolation); type: physicochemical; conditions: 25.4 °C, MeOH co-solvent potentiometric, extrapolated to 0% co-solvent
Protocol: pKa determination and assignment was completed on SJB-01 (FIG. 1). About 2 mg of SJB-01 (100142-1-1) was titrated three times with varying concentrations of MeOH as co-solvent to generate a Yasuda-Shedlovsky plot (L100142-65-4, FIG. 2 and Table 1). Extrapolation of the Yasuda-Shedlovsky plot to 0% co-solvent determined the pKa's (FIG. 3), which are acidic 5.76, basic 3.03. Acidic pKa is in red and basic pKa is in blue.
as §1, §2

[7] = Solubility by gravimetric method in 14 solvents; type: physicochemical; conditions: for solubility at 2 days: organic solvent or mixture, thermodynamic from solid; for Solubility: Water:DMSO (9:1 vol)
Protocol: Solubility measurements were done by gravimetric method in 14 different solvents at two temperatures (23° C. and 50° C.). About 25-35 mg solid was dispensed in 2 mL vials and 0.75 mL solvent was added to form a slurry. The slurries were then stirred for two days. The vials were centrifuged and the supernatant was collected for solubility measurement by gravimetric method.

[8] = Solubility in buffered solutions vs pH at 37 °C (HPLC); type: physicochemical; conditions: thermodynamic from solid, read-out: Solubility at 24 h
Protocol: Aqueous buffers between pH 1.3 and 7.4 (13 total) were prepared and 3 mL added to about 15 mg of SJB-01 (L100149-44-1, jet-milled). These slurries were stirred on a hot-plate at 37° C. for 24 hours. Sonication and vortexting was employed within the first 2 hours of stirring to ensure thorough mixing and wetting of the solids as there was a clear tendency for them to clump and float at the liquid surface. After sonication and vortexing there was substantial solids suspended in solution (slurry) along with the solids that floated on top. At 24 hours, the samples were collected by syringe filtration of about 2 mL of solution. The first 1 mL of solution that passed through the filter was discarded and the second 0.5-1 mL of solution was used for HPLC analysis. The samples were injected into HPLC without dilution.
SJB-01 (L100149-44-1) was weighed directly into volumetric flasks and filled to volume with ACN:water (6:4 vol.) to build a calibration curve. […] Details for the HPLC method used are given in Table 34; these follow the parameters used for previous dissolution study.

CCNn1c(C)c(C(=O)N[C@H](c2ccccc2)C2CC2)c2cccc(F)c2c1=O [SJB-01, 2-Ethylamino-8-fluoro-3-methyl-1-oxo-1,2-dihydro-isoquinoline-4-carboxylic acid ((S)-cyclopropyl-phenyl-methyl)-amide]
logD ([1]; 1-octanol/water, pH 7.4, pH 7.40, 1-octanol, from log D profile, read-out: log D7.40): 3.04
logP ([1]; neutral species, 1-octanol:water, 25.3 °C, pH-metric, three titrations): 4.73 ± 0.14
Maximal absorbable dose (MAD) ([2]; MAD=S*Ka*SIWV*SITT, S solubility at pH 6.5): 16 mg
Maximal absorbable dose (MAD) ([2]; humans, solubility in 0.001M HCl pH 3.0, data from the β-form): 16 mg
Maximal absorbable dose (MAD) ([2]; humans, solubility in FaSSIF, data from the β-form): 22 mg
Maximal absorbable dose (MAD) ([2]; humans, solubility in FeSSIF (fed state), data from the β-form): 38 mg
logP [3]: 3.3
Time stable in PEG 400 ([4]; PEG 400, room temperature, covered from light): at least 4 months
Compound decomposed ([4]; aqueous solution, extreme light exposure, 24 hr): 100%
Stability to oxygen and pH ([4]; exposed to oxygen and pH 2, 4, 6, and 7.4): stable
Compound left ([4]; solid compound, extreme light exposure, 24 hr): ~86%
IDR in FeSSIF media versus standard buffer [5]: not further increased
pKa (acidic) ([6]; acidic): 5.76
pKa ([6]; acidic, read-out: pKa (acidic)): 5.83 ± 0.11
pKa ([6]; basic, read-out: pKa (basic)): 3.03 ± 0.11
solubility at 2 days ([7]; ACN, 23 °C): 62 mg/mL (≈ 158 mM)
solubility at 2 days ([7]; ACN, 50 °C): 99 mg/mL (≈ 252 mM)
solubility at 2 days ([7]; EtOAc, 23 °C): 42 mg/mL (≈ 107 mM)
solubility at 2 days ([7]; EtOAc, 50 °C): 67 mg/mL (≈ 170 mM)
solubility at 2 days ([7]; EtOH, 23 °C): > 42 mg/mL
solubility at 2 days ([7]; IPA:water (85:15 vol), 23 °C): 27 mg/mL (≈ 68.6 mM)
solubility at 2 days ([7]; IPA:water (85:15 vol), 50 °C): 60 mg/mL (≈ 152 mM)
solubility at 2 days ([7]; IPAc, 23 °C): 22 mg/mL (≈ 55.9 mM)
solubility at 2 days ([7]; IPAc, 50 °C): 37 mg/mL (≈ 94 mM)
solubility at 2 days ([7]; MIBK, 23 °C): 40 mg/mL (≈ 102 mM)
solubility at 2 days ([7]; MIBK, 50 °C): 61 mg/mL (≈ 155 mM)
solubility at 2 days ([7]; MtBE, 23 °C): 8 mg/mL (≈ 20.3 mM)
solubility at 2 days ([7]; MtBE, 50 °C): 11 mg/mL (≈ 28 mM)
solubility at 2 days ([7]; THF, 23 °C): > 68 mg/mL
solubility at 2 days ([7]; THF, 50 °C): > 68 mg/mL
Solubility ([7]; 23 °C): Nil
Solubility ([7]; 50 °C): Nil
solubility at 2 days ([7]; acetic acid, 23 °C): > 72 mg/mL
solubility at 2 days ([7]; acetic acid, 50 °C): > 72 mg/mL
solubility at 2 days ([7]; acetone, 23 °C): > 67 mg/mL
solubility at 2 days ([7]; acetone, 50 °C): > 67 mg/mL
solubility at 2 days ([7]; dioxane, 23 °C): > 74 mg/mL
solubility at 2 days ([7]; dioxane, 50 °C): > 74 mg/mL
solubility at 2 days ([7]; ethanol, EtOH, 50 °C): > 42 mg/mL
solubility at 2 days ([7]; isopropanol (IPA), IPA, 23 °C): 29 mg/mL (≈ 73.7 mM)
solubility at 2 days ([7]; isopropanol (IPA), IPA, 50 °C): 64 mg/mL (≈ 163 mM)
solubility at 2 days ([7]; MeOH, 23 °C, lot L100142-1-1): > 76 mg/mL
solubility at 2 days ([7]; MeOH, 50 °C, lot L100142-1-1): > 76 mg/mL
solubility at 24 h ([8]; Britton-Robinson 0.05M buffer, aqueous buffer, Britton-Robinson 0.05M, initial pH 2.21, 24 h pH 2.22, 37 °C): 0.0079 mg/mL (≈ 0.0201 mM)
solubility at 24 h ([8]; Britton-Robinson 0.05M buffer, aqueous buffer, Britton-Robinson 0.05M, initial pH 2.85, 24 h pH 2.97, 37 °C): 0.0074 mg/mL (≈ 0.0188 mM)
solubility at 24 h ([8]; Britton-Robinson 0.05M buffer, aqueous buffer, Britton-Robinson 0.05M, initial pH 4.95, 24 h pH 5.01, 37 °C): 0.0077 mg/mL (≈ 0.0196 mM)
solubility at 24 h ([8]; Citric acid/NaOH 0.05M buffer, aqueous buffer, Citric acid/NaOH 0.05M, initial pH 2.86, 24 h pH 2.88, 37 °C): 0.0081 mg/mL (≈ 0.0206 mM)
solubility at 24 h ([8]; Citric acid/NaOH 0.05M buffer, aqueous buffer, Citric acid/NaOH 0.05M, initial pH 3.82, 24 h pH 3.85, 37 °C): 0.0075 mg/mL (≈ 0.0191 mM)
solubility at 24 h ([8]; Citric acid/NaOH 0.05M buffer, pH 4.9, aqueous buffer, Citric acid/NaOH 0.05M, initial pH 4.90, 24 h pH 4.90, 37 °C): 0.0072 mg/mL (≈ 0.0183 mM)
solubility at 24 h ([8]; HCl/KCl 0.05M buffer, aqueous buffer, HCl/KCl 0.05M, initial pH 2.13, 24 h pH 2.16, 37 °C): 0.0075 mg/mL (≈ 0.0191 mM)
solubility at 24 h ([8]; HCl/KCl 0.05M buffer, pH 1.3, simulated gastric fluid, HCl/KCl 0.05M, initial pH 1.34, 24 h pH 1.30, 37 °C, jet-milled beta form): 0.0078 mg/mL (≈ 0.0198 mM)
solubility at 24 h ([8]; KH2PO4/NaOH 0.05M buffer, aqueous buffer, KH2PO4/NaOH 0.05M, initial pH 5.98, 24 h pH 6.04, 37 °C): 0.0071 mg/mL (≈ 0.018 mM)
solubility at 24 h ([8]; KH2PO4/NaOH 0.05M buffer, aqueous buffer, KH2PO4/NaOH 0.05M, initial pH 7.46, 24 h pH 7.47, 37 °C): 0.0064 mg/mL (≈ 0.0163 mM)
solubility at 24 h ([8]; KHP/HCl 0.05M buffer, aqueous buffer, KHP/HCl 0.05M, initial pH 3.18, 24 h pH 3.14, 37 °C): 0.0095 mg/mL (≈ 0.0241 mM)
solubility at 24 h ([8]; KHP/HCl 0.05M buffer, aqueous buffer, KHP/HCl 0.05M, initial pH 3.89, 24 h pH 3.94, 37 °C): 0.0098 mg/mL (≈ 0.0249 mM)
solubility at 24 h ([8]; KHP/NaOH 0.05M buffer, aqueous buffer, KHP/NaOH 0.05M, initial pH 4.96, 24 h pH 4.99, 37 °C): 0.0083 mg/mL (≈ 0.0211 mM)
